How the values were obtained:
[1] = target: T1, PI3Kα kinase (Homo sapiens, UniProt P42336); experiment: PI3Kα assay (32P incorporation into phosphatidylinositol, TLC densitometry); assay type: biochemical; settings: for inhibition at 0.1 µM: At 100 nM; for inhibition at 1 µM: At 1000 nM
T1 construct: purchased Millipore, USA
Procedure, shortened: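 Human PI3Kα (20 ng) with 12.5 μg phosphatidylinositol, 10 μM ATP plus [γ-32P]ATP in 10 mM Hepes pH 7.5, 50 mM MgCl2; 20 min at 30° C. Lipids extracted in MeOH/chloroform, resolved by silica TLC, and 32P-labelled PI quantified by autoradiography densitometry.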

[2] = test system: PI3K α; experiment: PI3K activity assay, cell-based ELISA of AKT (Ser 473) phosphorylation; settings: Homo sapiens, Ovarian cell line A2780, 20% FCS stimulation
Protocol: (§1) The assay was designed as in the reference, Biochemical Journal, 2000, 350, 717-722, the disclosure of which is incorporated by reference for the teaching of the assay.
(§2) Seed cells (Ovarian cell line A2780, ATCC) were plated in a 96 well microtitre plate at a density of 50,000 cells/cm^2 in appropriate complete cell culture medium. The cells were allowed to adhere for 18-24 hours. The cells were allowed to starve for 24 hours. The cells were pretreated (in triplicates) with the compounds of Example 1-40 (stock solution was prepared in DMSO and subsequent dilutions were made in kinase buffer) at a concentration of 10 μM for one hour. Then the cells were stimulated with 20% FCS for 30 minutes. A typical assay would consist of a set of unstimulated cells, a set of stimulated cells and a set of cells treated with compounds of Example 1-40 and a set of cells treated with the stimulator. The medium was discarded. The cells were fixed with 100 μL of 3.7% formaldehyde for 15 minutes. The formaldehyde was discarded by inverting the plate and tapping it on a thick tissue paper layer to remove traces. The cells were washed and permeabilized with 200 μL PBS+Triton-X 100 solution (hereafter referred to as PBS-Triton, containing 0.1% triton-X 100 in 1×PBS) three times, incubating the cells each time for 5 minutes. 100 μL blocking solution (10% FCS in PBS-Triton) was added and incubated for 1 hour at 25° C. The blocking solution was discarded and cells were incubated with the primary antibody in PBS-Triton at a dilution of 1:500 for 1 hour at RT (25° C.). [The primary antibody is Phospho-AKT (Ser 473); Cell Signaling; USA, Cat. No. 9271]. The primary antibody solution was discarded and the cells were washed 3 times with PBS-Triton solution and incubated with the HRP-conjugated secondary antibody in PBS-Triton at a dilution of 1:500 for 1 hour at RT (25° C.). The cells were washed 3 times with PBS-Triton followed by two washes with PBS (to remove traces of triton-X 100). The OPD (o-phenylene diamine dihydrochloride) substrate was prepared for detection of the signal by dissolving one tablet set (two tablets) of SigmaFast OPD (Sigma, USA, Cat No. P9187) in 20 mL distilled water. It should be kept protected from light. 100 μL OPD solutions was added to the wells and the plate was incubated in the dark for 3-5 minutes (depending upon the development of the color). The reaction was stopped by adding 50 μL 2 NH2SO4. The absorbance was measured at 490 nm. The values were expressed in the treated samples, in terms of percentage or fold decrease in AKT phosphorylation with respect to the induced sample. PI-103 (Calbiochem, USA) was used as a standard.

[3] = test system: A549; experiment: Cytotoxicity, propidium iodide assay, A549; assay type: cell-based; settings: Homo sapiens; Lung, A549, 48 hours treatment; read-out: IC50, C1a (A549)
Procedure, shortened: (§3)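 Cells seeded at 3000 cells/well, incubated 18-24 hours at 37° C./5% CO2, then exposed to a range of compound concentrations for 48 hours. After a PBS wash, 7 μg/ml propidium iodide was added, plates frozen at −70° C. for at least 24 hours, thawed and read by fluorescence; IC50 from viability relative to untreated wells.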

[4] = test system: H460; experiment: Cytotoxicity, propidium iodide assay, H460; assay type: cell-based; settings: Homo sapiens, NCI-H460; Lung, H460, 48 hours treatment; read-out: IC50, C1b (H460)
Procedure, shortened: as §3

[5] = test system: A2780; experiment: Cytotoxicity, propidium iodide assay, A2780; assay type: cell-based; settings: Homo sapiens; Ovarian, A2780, 48 hours treatment; read-out: IC50, C3a (A2780)
Procedure, shortened: as §3

[6] = test system: OVCAR 3; experiment: Cytotoxicity, propidium iodide assay, OVCAR 3; assay type: cell-based; settings: Homo sapiens; Ovarian, OVCAR 3, 48 hours treatment; read-out: IC50, C3b (OVCAR 3)
Procedure, shortened: as §3

[7] = test system: PANC 1; experiment: Cytotoxicity, propidium iodide assay, PANC 1; assay type: cell-based; settings: Homo sapiens; Pancreatic, PANC 1, 48 hours treatment; read-out: IC50, C5a (PANC 1)
Protocol: The assay was designed as in the reference, Anticancer Drugs, 2002, 13, 1-8, the disclosure of which is incorporated by reference for the teaching of the assay.
Cells from cell lines as mentioned in the table given below were seeded at a density of 3000 cells/well in a white opaque 96-well plate. Following incubation at 37° C./5% CO2 for a period of 18-24 hours, the cells were treated with various concentrations (stock solution was prepared in DMSO and subsequent dilutions were made in media as per ATCC guidelines) of the compounds of Example 1-40 was for a period of 48 hours. At the end of treatment, the spent culture medium was discarded, the cells were washed with 1×PBS and 200 μl of 7 μg/ml propidium iodide was added to each well. The plates were frozen at −70° C. for at least 24 hours. For analysis, the plates were brought to RT, allowed to thaw and were read in PoleStar fluorimeter with the fluorescence setting. The percentage of viable cells in the non-treated set of wells was considered to be 100 and the percentage viability following treatment was calculated accordingly. IC50 values were calculated from graphs plotted using these percentages. Table 4 depicts the IC50 values of compounds of Example 1-40 in individual cell lines.
The abbreviations for the Cell Lines as used in Table 4 are: […]

[8] = test system: U 373; experiment: Cytotoxicity, propidium iodide assay, U 373; assay type: cell-based; settings: Homo sapiens, U373 MG; Glioblastoma, U 373, 48 hours treatment; read-out: IC50, C7a (U 373)
Procedure, shortened: as §3

[9] = test system: mTOR; experiment: mTOR activity assay (cell-based); settings: Homo sapiens, Ovarian cell line A2780
Protocol: as §1, §2

T1 sequence (P42336 whole entry): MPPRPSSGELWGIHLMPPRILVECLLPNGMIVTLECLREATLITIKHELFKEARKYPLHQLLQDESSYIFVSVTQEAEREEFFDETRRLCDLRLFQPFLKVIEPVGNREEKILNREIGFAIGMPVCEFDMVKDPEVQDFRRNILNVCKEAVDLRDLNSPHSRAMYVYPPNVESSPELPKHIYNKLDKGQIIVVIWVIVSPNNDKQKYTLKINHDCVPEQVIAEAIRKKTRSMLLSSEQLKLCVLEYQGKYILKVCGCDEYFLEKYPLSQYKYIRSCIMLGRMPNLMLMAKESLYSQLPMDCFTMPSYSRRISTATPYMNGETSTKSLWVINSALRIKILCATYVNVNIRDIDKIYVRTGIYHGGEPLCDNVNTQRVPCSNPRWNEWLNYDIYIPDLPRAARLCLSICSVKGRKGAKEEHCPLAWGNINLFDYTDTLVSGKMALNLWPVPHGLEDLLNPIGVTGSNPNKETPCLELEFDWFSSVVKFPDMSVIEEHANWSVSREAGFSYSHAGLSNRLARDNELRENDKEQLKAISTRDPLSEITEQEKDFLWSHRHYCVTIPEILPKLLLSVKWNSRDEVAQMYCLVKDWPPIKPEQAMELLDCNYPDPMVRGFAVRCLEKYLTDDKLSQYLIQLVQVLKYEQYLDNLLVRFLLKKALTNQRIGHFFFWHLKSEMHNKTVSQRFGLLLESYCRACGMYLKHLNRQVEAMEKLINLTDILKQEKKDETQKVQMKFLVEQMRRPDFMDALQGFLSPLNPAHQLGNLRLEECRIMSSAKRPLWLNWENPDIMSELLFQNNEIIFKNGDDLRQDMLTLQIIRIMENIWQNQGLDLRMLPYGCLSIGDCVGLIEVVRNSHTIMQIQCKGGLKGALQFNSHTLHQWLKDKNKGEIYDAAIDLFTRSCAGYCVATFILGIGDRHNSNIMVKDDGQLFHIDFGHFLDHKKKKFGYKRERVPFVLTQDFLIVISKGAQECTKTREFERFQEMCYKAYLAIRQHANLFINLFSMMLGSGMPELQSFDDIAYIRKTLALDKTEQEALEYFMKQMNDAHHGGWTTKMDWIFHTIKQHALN
T1 sequence (P27986 whole entry partner): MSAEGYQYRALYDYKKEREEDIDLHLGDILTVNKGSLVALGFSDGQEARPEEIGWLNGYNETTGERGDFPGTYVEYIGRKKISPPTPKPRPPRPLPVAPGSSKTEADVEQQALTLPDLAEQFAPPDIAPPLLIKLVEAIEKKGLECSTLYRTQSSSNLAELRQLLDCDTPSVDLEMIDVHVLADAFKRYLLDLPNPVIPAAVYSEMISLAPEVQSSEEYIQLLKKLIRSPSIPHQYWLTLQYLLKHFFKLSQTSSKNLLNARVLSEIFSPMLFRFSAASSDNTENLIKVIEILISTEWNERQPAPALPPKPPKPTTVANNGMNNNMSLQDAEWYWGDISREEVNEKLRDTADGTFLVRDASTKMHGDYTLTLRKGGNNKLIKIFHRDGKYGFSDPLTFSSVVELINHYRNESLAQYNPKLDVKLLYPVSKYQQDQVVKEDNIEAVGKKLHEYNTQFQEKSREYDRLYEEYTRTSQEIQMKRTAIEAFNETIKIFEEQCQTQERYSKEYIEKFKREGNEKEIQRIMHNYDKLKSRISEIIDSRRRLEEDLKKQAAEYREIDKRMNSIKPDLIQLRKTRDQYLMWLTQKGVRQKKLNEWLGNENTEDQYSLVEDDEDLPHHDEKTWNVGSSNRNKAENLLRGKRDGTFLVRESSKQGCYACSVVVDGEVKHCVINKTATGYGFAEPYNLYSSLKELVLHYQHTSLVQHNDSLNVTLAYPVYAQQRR

`Cc1cccc(S(=O)(=O)n2c(=O)n(-c3ccc(C(C)(C)C#N)cc3)c3c4cc(Br)ccc4ncc32)c1` [Example 3, 2-(4-(8-Bromo-2-oxo-3-(m-tolylsulfonyl)-2,3-dihydro-1H-imidazo[4,5-c]quinolin-1-yl)phenyl)-2-methylpropanenitrile] was tested, and the inhibition at 0.1 µM [1] was 10 to 50%, the inhibition at 10 µM [2] was 10 to 50% and the IC50 [3] was 1000 to 3000 nM. For the same molecule, the IC50 [4] was ≤ 1000 nM, the IC50 [5] was ≤ 1000 nM and the IC50 [6] was 1000 to 3000 nM. For the same molecule, the IC50 [7] was 1000 to 3000 nM and the IC50 [8] was > 3000 nM.
For `C/C=C/C(=O)n1c(=O)n(-c2ccc(C(C)(C)C#N)cc2)c2c3cc(Br)ccc3ncc21` [Example 27, (E)-2-(4-(8-Bromo-3-but-2-enoyl-2-oxo-2,3-dihydro-1H-imidazo[4,5-c]quinolin-1-yl)phenyl)-2-methylpropanenitrile], the inhibition at 1 µM [1] was 10 to 50%, the inhibition at 10 µM [2] was > 50% and the inhibition at 10 µM [9] was > 50%. For the same molecule, the IC50 [3] was ≤ 1000 nM, the IC50 [4] was ≤ 1000 nM and the IC50 [5] was > 3000 nM. The IC50 [6] was ≤ 1000 nM and the IC50 [7] was ≤ 1000 nM.
With `CC(C)(C#N)c1ccc(-n2c(=O)n(C(=O)c3ccccc3)c3cnc4ccc(Br)cc4c32)cc1` [Example 30, 2-(4-(3-Benzoyl-8-bromo-2-oxo-2,3-dihydro-1H-imidazo[4,5-c]quinolin-1-yl)phenyl)-2-methylpropanenitrile] the inhibition at 0.1 µM [1] was > 50%, the inhibition at 10 µM [2] was 10 to 50% and the inhibition at 10 µM [9] was 10 to 50%. The IC50 [3] was 1000 to 3000 nM, the IC50 [4] was ≤ 1000 nM and the IC50 [5] was ≤ 1000 nM. The IC50 [6] was ≤ 1000 nM, the IC50 [7] was 1000 to 3000 nM and the IC50 [8] was ≤ 1000 nM.
In the case of `CC(C)(C#N)c1ccc(-n2c(=O)n(C(=O)c3ccccc3)c3cnc4ccc(Cl)cc4c32)cc1` [Example 37, 2-(4-(3-Benzoyl-8-chloro-2-oxo-2,3-dihydro-1H-imidazo[4,5-c]quinolin-1-yl)phenyl)-2-methylpropanenitrile], the inhibition at 0.1 µM [1] is reported as 10 to 50%, the inhibition at 10 µM [9] is reported as 10 to 50% and the IC50 [3] is reported as 1000 to 3000 nM. The IC50 [4] was 1000 to 3000 nM, the IC50 [6] was 1000 to 3000 nM and the IC50 [8] was > 3000 nM.
With `C/C=C/C(=O)n1c(=O)n(-c2ccc(C(C)(C)C#N)cc2)c2c3cc(Cl)ccc3ncc21` [Example 38, (E)-2-(4-(3-But-2-enoyl-8-chloro-2-oxo-2,3-dihydro-1H-imidazo[4,5-c]quinolin-1-yl)phenyl)-2-methylpropanenitrile] the inhibition at 1 µM [1] was 10 to 50%, the inhibition at 10 µM [2] was > 50% and the inhibition at 10 µM [9] was > 50%. For the same molecule, the IC50 [3] was ≤ 1000 nM, the IC50 [4] was ≤ 1000 nM and the IC50 [5] was > 3000 nM. For the same molecule, the IC50 [6] was ≤ 1000 nM and the IC50 [7] was ≤ 1000 nM.

Source: patent US8637670B2, “Imidazo [4,5-C]quinoline derivatives and their use in the treatment of tumors and/or inflammation” (Piramal Enterprises Limited, priority 2009, dated 2014)
